# Values joined by “and” are separate entries in the source; they are usually repeats but may differ in a detail not shown here. Identical values can stand only once.
# Columns and labels:
# Experiment in all cases: carrageenan-induced rat's paw edema
# Type in all cases: in vivo, Male Sprague Dawley rats
# [1] = system: carrageenan-induced rat's paw edema; design: key: IS: Insignificant result; *: significant result; details: Example 4; 30 mg/kg ip
# Protocol: (§1) The activity of the compounds of the invention was evaluated in vivo on a model of carrageenan-induced rat's paw edema.
# (§2) Male Sprague Dawley rats (Charles River) weighing 170 to 180 g on the day of the experiment are kept indoors for 5 to 8 days under animal husbandry conditions and are starved for 18 hours on a mesh floor before and during the experiment. The groups are constituted by 8 animals. The products are administered by intraperitoneal route (ip, 2 ml/kg), 30 minutes before the 1% Carrageenan is injected into the sole of the rats' rear right paw. The volume of the paw corresponding to the edema is measured using a water plethysmometer (Ugo Basile, APELEX) before the injection of carrageenan (t0) and 3 hours after the injection. The volume of the paw allows determination of the % of inflammation ((volume of the paw at time t after carrageenan−volume of the same paw at time to before injection of the products/volume of the paw at time t0)×100). […] This effectiveness is determined statistically by a Student test.
# [2] = system: carrageenan-induced rat's paw edema; details: for % inflammation: 30 minutes before 1% carrageenan, paw volume 3 hours after injection, 8 rats; for protection of the animal from the edema caused by carrageenan (in words): ip, doses of the groups of the respective example
# Protocol: as §1, §2
# [3] = system: carrageenan-induced rat's paw edema; design: key: IS: insignificant result; ***: highly significant result
# Protocol: as §1, §2
Compound,significance of % inflammation (Student test) [1],% inflammation ([2]; 30 mg/kg ip),protection of the animal from the edema caused by carrageenan (in words) [2],also measured
"CN(Cc1nc(-c2cc(C(C)(C)C)c(O)c(C(C)(C)C)c2)cs1)c1ccc(NC(=N)c2cccs2)cc1.Cl [4-[3,5-bis(1,1-dimethylethyl)-4-hydroxyphenyl]-N-{4-[(imino(2-thienyl)methyl)amino]phenyl}-N-methyl-2-thiazolemethanamine hydrochloride]",IS,52.8 ± 4.0%,inactive,
O=[N+]([O-])c1cccc2cn[nH]c12 [7-nitroindazole],,,inactive,"significance of % inflammation (Student test) ([3]; Example 1, 25 mg/kg ip): IS; % inflammation ([2]; 25 mg/kg ip): 72.5 ± 16.1%"
N=C(N)NN [aminoguanidine],,,inactive,"significance of % inflammation (Student test) ([3]; Example 2, 400 mg/kg ip): IS; significance of % inflammation (Student test) ([3]; Example 3, 400 mg/kg ip): IS; % inflammation ([2]; 400 mg/kg ip): 53.1 ± 3.4% and 60.7 ± 7.5%"
COc1cccc2c1cc([N+](=O)[O-])c1c(C(=O)O)cc3c(c12)OCO3 [aristolochic acid],,68 ± 5.1%,inactive,"significance of % inflammation (Student test) ([3]; Example 3, 30 mg/kg ip): IS"
CCN(CC)CCCC(C)Nc1c2ccc(Cl)cc2nc2ccc(OC)cc12 (stereo not drawn) [mepacrine],IS,64.5 ± 3.7% and 53.9 ± 3.2% and 51.9 ± 2.7%,inactive,"significance of % inflammation (Student test) ([3]; Example 1, 30 mg/kg ip): IS; significance of % inflammation (Student test) ([3]; Example 2, 30 mg/kg ip): IS"

# From patent US6872738B1, “Product comprising at least a no synthase inhibiting substance associated with at least a phospholipase a2 inhibiting substance” (Societe de Conseils de Recherches et D'Applications …, priority 1999, dated 2005)
